From patent publication US6521630B1, “Tetrahydroquinazoline-2,4-diones and therapeutic uses thereof” (Pfizer Inc., priority 1999, dated 2003)
Counter-ions that a name gives are not always drawn.

| SMILES | melting point [°C] |
| --- | --- |
| O=c1[nH]c2cc([N+](=O)[O-])ccc2c(=O)n1CCCN1CC=C(c2ccc(Cl)cc2)CC1 (as salt: maleate) | 210 to 212 |
| Cc1ccc(C2=CCN(CCCn3c(=O)[nH]c4cccc(C)c4c3=O)CC2)cc1 (as salt: maleate) | 165 to 170 |
| O=c1[nH]c2ccc([N+](=O)[O-])cc2c(=O)n1CCCN1CC=C(c2ccc(Cl)cc2)CC1 (as salt: maleate) | 205 to 207 |
| Cc1cccc2[nH]c(=O)n(CCCN3CC=C(c4ccc(Cl)cc4)CC3)c(=O)c12 (as salt: maleate) | 175 to 178 |
| O=c1[nH]c2c(O)cccc2c(=O)n1CCCN1CC=C(c2ccc(Cl)cc2)CC1 (as salt: hydrobromid) | 284 to 286 |
| Cc1ccc2c(=O)n(CCCN3CC=C(c4ccc(Cl)cc4)CC3)c(=O)[nH]c2c1 (as salt: maleate) | 199 to 201 |
| Cc1ccc(C)c2c(=O)n(CCCN3CC=C(c4ccc(Cl)cc4)CC3)c(=O)[nH]c12 (as salt: maleate) | 212 to 220 |
| O=c1[nH]c2cccc(Cl)c2c(=O)n1CCCN1CC=C(c2ccc(Cl)cc2)CC1 (as salt: maleate) | 190 to 194 |
| Cc1cccc2[nH]c(=O)n(CCCN3CC=C(c4cccc(C(F)(F)F)c4)CC3)c(=O)c12 (as salt: maleate) | 158 to 160 |
| O=c1[nH]c2cc(F)ccc2c(=O)n1CCCN1CC=C(c2ccc(Cl)cc2)CC1 (as salt: maleate) | 197 to 198 |
| O=c1[nH]c2c(Cl)cccc2c(=O)n1CCCN1CC=C(c2cccc(C(F)(F)F)c2)CC1 (as salt: maleate) | 205 to 210 |

The remaining lines, values ahead:

| melting point [°C] | SMILES |
| --- | --- |
| 212 to 214 | Cc1cc(Br)c2[nH]c(=O)n(CCCN3CC=C(c4ccc(Cl)cc4)CC3)c(=O)c2c1 (as salt: maleate) |
| 197 to 198 | O=c1[nH]c2ccc(Cl)cc2c(=O)n1CCCN1CC=C(c2ccc(Cl)cc2)CC1 (as salt: maleate) |
| 215 to 217 | Cc1cccc2c(=O)n(CCCN3CC=C(c4ccc(Cl)cc4)CC3)c(=O)[nH]c12 (as salt: maleate) |
| 225 to 227 | O=c1[nH]c2cc(Cl)ccc2c(=O)n1CCCN1CC=C(c2ccc(Cl)cc2)CC1 (as salt: maleate) |
| 197 to 199 | O=c1[nH]c2c(Cl)cc(Cl)cc2c(=O)n1CCCN1CC=C(c2ccc(Cl)cc2)CC1 (as salt: maleate) |
| 208 to 210 | Cc1c(Cl)ccc2c(=O)n(CCCN3CC=C(c4ccc(Cl)cc4)CC3)c(=O)[nH]c12 (as salt: maleate) |
